Data set [1] deals with T1, AnCDA (Aspergillus nidulans chitin deacetylase) (Aspergillus nidulans, UniProt Q5AQQ0).
T1 construct: gene cda; recombinant AnCDA (GenBank XM_677557.1), expressed in Pichia pastoris, His-tag purified
T1 sequence (Q5AQQ0 19-237): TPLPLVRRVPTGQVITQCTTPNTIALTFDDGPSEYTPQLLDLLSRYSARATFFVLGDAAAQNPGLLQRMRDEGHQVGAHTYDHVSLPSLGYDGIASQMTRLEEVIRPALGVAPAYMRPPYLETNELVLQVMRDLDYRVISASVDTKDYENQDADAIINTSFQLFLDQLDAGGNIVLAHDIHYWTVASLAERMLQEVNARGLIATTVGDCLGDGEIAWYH
Kind of data set: acetate release assay on (GlcNAc)[…] with purified AnCDA; Dixon plot Ki (abstract also gives IC50 […]). In kind it is biochemical.

Substrate in data set [2]: CC(=O)N[C@H]1[C@H](O[C@H]2[C@H](O)[C@@H](NC(C)=O)[C@H](O[C@H]3[C@H](O)[C@@H](NC(C)=O)C(O)O[C@@H]3CO)O[C@@H]2CO)O[C@H](CO)[C@@H](O[C@@H]2O[C@H](CO)[C@@H](O[C@@H]3O[C@H](CO)[C@@H](O)[C@H](O)[C@H]3NC(C)=O)[C@H](O)[C@H]2NC(C)=O)[C@@H]1O
Kind of data set: enzyme kinetics (Km) by acetate release assay. The class given is biochemical, Aspergillus nidulans. As to conditions: Co2+ ([…] CoCl2 in assay) active site.

Turning to `Cc1ccc(-c2nc(CNC(=O)c3cccnc3Cl)no2)cc1` [J075-4187], the Ki (in general, the equilibrium dissociation constant of an inhibitor or competing ligand from its target) in data set [1] came to 31.6 µM. That is a double-digit micromolar value.

B1: AnCDA (Aspergillus nidulans chitin deacetylase) (Aspergillus nidulans FGSC A4) (protein)
chain: TPLPLVRRVPTGQVITQCTTPNTIALTFDDGPSEYTPQLLDLLSRYSARATFFVLGDAAAQNPGLLQRMRDEGHQVGAHTYDHVSLPSLGYDGIASQMTRLEEVIRPALGVAPAYMRPPYLETNELVLQVMRDLDYRVISASVDTKDYENQDADAIINTSFQLFLDQLDAGGNIVLAHDIHYWTVASLAERMLQEVNARGLIATTVGDCLGDGEIAWYH
notes: recombinant AnCDA (GenBank XM_677557.1), expressed in Pichia pastoris, His-tag purified
As for B1, in data set [2], the Km (usually the substrate concentration at which the rate is half of its maximum) was 72 µM.

Source of the values: PMC9628821, “Discovery of Chitin Deacetylase Inhibitors through Structure-Based Virtual Screening and Biological Assays” (Journal of Microbiology and Biotechnology, 2022).
